Drawing on US20240245658A1, “TAAR1 AND SEROTONIN MODULATORS, AND PHARMACEUTICAL COMPOSITIONS, AND METHODS OF USE THEREOF” (Sunovion Pharmaceuticals Inc., priority 2021, published 2024), this text covers IC50 and EC50 for 21 compounds.

As a reminder, the IC50 is the midpoint of a concentration-inhibition curve. The EC50 is the concentration needed to bring the measured effect to its halfway point. High values mean a less potent agent, low ones a more potent agent.

Holding throughout (type): cell-based
Assay [1] deals with T1, human 5-HT2A receptor (Homo sapiens, UniProt P28223).
T1 construct: host or cells: CHO-K1
T1 sequence (P28223 whole entry): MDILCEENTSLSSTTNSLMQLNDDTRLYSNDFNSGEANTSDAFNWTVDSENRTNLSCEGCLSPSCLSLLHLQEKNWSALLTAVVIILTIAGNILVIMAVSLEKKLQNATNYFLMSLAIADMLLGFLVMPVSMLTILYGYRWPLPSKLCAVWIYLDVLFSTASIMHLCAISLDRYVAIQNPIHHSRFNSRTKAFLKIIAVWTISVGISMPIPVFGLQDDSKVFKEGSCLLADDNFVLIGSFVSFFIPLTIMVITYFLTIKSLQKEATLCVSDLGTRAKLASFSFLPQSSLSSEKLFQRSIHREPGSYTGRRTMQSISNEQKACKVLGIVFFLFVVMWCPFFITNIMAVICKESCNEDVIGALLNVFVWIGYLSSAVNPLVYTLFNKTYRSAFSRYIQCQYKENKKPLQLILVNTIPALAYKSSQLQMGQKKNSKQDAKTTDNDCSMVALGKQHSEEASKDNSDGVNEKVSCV
Put plainly: 5HT2A Antagonism Assay (Euroscreen FAST-05051), IP-One HTRF. Here is the method: 5HT2A Antagonism Assay Protocol (Euroscreen FAST-05051)
CHO-K1 cells expressing the human 5-HT2A receptor grown to mid-log phase in culture media without antibiotics, were detached with PBS-EDTA, centrifuged, and resuspended in the IP-One Gq kit (Cisbio Bioassays, 62IPAPEC) stimulation buffer.
For antagonist testing in a 384 well plate: 5 μl of cells (20,000 cells) were mixed with 5 μl of a mix of test compound and reference agonist (for a final assay concentration corresponding to its EC80) diluted in stimulation buffer. The plate was incubated for 60 minutes at 37° C. in a humidified atmosphere of 95% air with 5% CO2, then 5 μL of IP1-d2 and anti-IP1 cryptate detection reagents were added to each well, the plates were incubated for about 1 hour at about room temperature. Fluorescence ratios are measured according to the manufacturer's specification (IP-One Gq kit (Cisbio Bioassays, 62IPAPEC).
Dose response curves were performed in parallel with reference compounds (e.g., α-methyl-5-HT. Compounds were tested at the following nanomolar concentrations, in duplicate: 0.3 nM, 1 nM, 3 nM, 10 nM, 30 nM, 100 nM, 300 nM, 1,000 nM, 3,000 nM, and 10,000 nM
(In general: In TR-FRET formats the signal depends on donor and acceptor labels being close together.)

The target of assay [2] is T2, human 5-HT7 receptor (Homo sapiens, UniProt P34969).
T2 construct: host or cells: CHO-K1
T2 sequence (P34969 whole entry): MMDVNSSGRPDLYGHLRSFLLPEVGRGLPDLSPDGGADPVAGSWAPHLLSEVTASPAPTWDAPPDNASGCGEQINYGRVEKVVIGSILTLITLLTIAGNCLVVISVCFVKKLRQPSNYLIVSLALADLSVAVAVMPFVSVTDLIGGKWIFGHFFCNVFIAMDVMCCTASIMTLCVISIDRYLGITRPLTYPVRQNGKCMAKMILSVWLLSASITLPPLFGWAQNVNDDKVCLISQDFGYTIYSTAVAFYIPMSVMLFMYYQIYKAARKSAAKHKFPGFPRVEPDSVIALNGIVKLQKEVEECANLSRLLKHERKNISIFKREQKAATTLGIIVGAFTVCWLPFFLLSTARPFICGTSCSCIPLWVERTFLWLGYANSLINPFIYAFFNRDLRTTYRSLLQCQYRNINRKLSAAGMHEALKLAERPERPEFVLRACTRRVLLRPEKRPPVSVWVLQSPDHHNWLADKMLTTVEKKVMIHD
The assay is described as follows: 5HT7 Antagonism Assay (Euroscreen FAST-0499C), cAMP HTRF. Particulars: CHO-K1 cells expressing human 5-HT7, reference agonist at EC80, cAMP HTRF. Here is the method: 5HT7 Antagonism Assay Protocol (Euroscreen FAST-0499C)
CHO-K1 cells expressing the human 5-HT7 receptor, grown prior to the test in media without antibiotic, were detached by gentle flushing with PBS-EDTA (5 mM EDTA), recovered by centrifugation and resuspended in assay buffer (Krebs-Ringer HEPES buffer: 5 mM KCl, 1.25 mM MgSO4, 124 mM NaCl, 25 mM HEPES, 13.3 mM Glucose, 1.25 mM KH2PO4, 1.45 mM CaCl2), 0.5 g/l BSA, supplemented with 1 mM IBMX).
Dose response curves were performed in parallel with reference compounds (e.g., 5-carboxamidotryptamine (5-CT)).
For antagonist testing in a 384 well plate: 5 μl of cells (3000 cells) were mixed with 5 μl of a mix of test compound and reference agonist (for a final assay concentration corresponding to its EC80) diluted in assay buffer. The plates were then incubated for about 30 minutes at about room temperature. After addition of the lysis buffer containing cAMP-d2 and anti-cAMP cryptate detection reagents, plates were incubated for about 1 hour at about room temperature, and fluorescence ratios were measured according to the manufacturer's specifications (HTRF kit: cAMP Gs dynamic kit, Cisbio Bioassays, 62AM4PEJ).
(§1) Compounds were tested at the following nanomolar concentrations, in duplicate: 0.3 nM, 1 nM, 3 nM, 10 nM, 30 nM, 100 nM, 300 nM, 1,000 nM, 3,000 nM, and 10,000 nM.

Assay [3] has as its target T3, human TAAR1 receptors (Homo sapiens, UniProt Q96RJ0).
T3 construct: host or cells: CHO-K1
T3 sequence (Q96RJ0 1-339): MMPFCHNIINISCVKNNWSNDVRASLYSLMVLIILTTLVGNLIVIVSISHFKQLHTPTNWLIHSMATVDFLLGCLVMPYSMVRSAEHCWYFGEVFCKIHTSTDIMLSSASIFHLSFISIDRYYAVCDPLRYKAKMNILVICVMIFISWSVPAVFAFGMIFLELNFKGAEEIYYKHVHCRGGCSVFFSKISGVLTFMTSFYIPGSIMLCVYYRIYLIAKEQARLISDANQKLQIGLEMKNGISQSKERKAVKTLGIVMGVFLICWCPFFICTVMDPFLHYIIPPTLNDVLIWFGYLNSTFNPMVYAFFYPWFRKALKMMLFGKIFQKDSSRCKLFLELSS
Put plainly: TAAR1 Agonism Assay: cAMP HTRF assay for Gs coupled receptor TAAR1 (Euroscreen FAST-0987C). Particulars: CHO-K1 cells expressing human TAAR1, cAMP HTRF. The procedure:
Dose response curves were performed in parallel with the reference compound, tyramine.
For the TAAR1 agonist test (performed in a 384 well plate): 5 μl of cells (about 3,000 cells) were mixed with 5 μl of the test compound diluted in assay buffer and then incubated for about 30 minutes at about room temperature. After addition of the lysis buffer containing cAMP-d2 and anti-cAMP cryptate detection reagents, plates were incubated for about a 1-hour incubation at about room temperature, and fluorescence ratios were measured according to the manufacturer specifications, with the HTRF (Homogeneous Time Resolved Fluorescence) kit (cAMP Gs dynamic kit, Cisbio Bioassays, 62AM4PEJ).
as §1

The mark [4] stands for this setting: read-out: 5-HT2A (IC50), CHO-K1 cells expressing human 5-HT2A, reference agonist at EC80, IP-One.
Setting [5] is: 5-HT2A (IC50), CHO-K1 cells expressing human 5-HT2A, reference agonist at EC80, IP-One.
The mark [6] stands for this setting: CHO-K1 cells expressing human 5-HT2A, reference agonist at EC80, IP-One, read-out: 5-HT2A (IC50).

Where two headings read alike, the source gives them in different places.

As for `NCC1Cc2ncc(F)cc2Oc2ccccc21` (single isomer, unassigned) [Compound 40, (S*)-(3-fluoro-10,11-dihydrobenzo[6,7]oxepino[3,2-b]pyridin-10-yl)methanamine], the IC50 in assay [1] (setting [4]) is less than 1 µM; in assay [2], not below 10 µM. For the same compound, the EC50 in assay [3] is less than 1 µM.

As to `NCC1Oc2ccc(F)cc2Oc2ccccc21` (single isomer, unassigned) [Compound 41, (R*)-(7-fluoro-11H-dibenzo[b,e][1,4]dioxepin-11-yl)methanamine], the IC50 in assay [1] (setting [5]) is less than 1 µM; in assay [2], 1 to 10 µM. The compound also had an EC50 in assay [3] of less than 1 µM.

Consider `NCC1Oc2ccc(F)cc2Oc2ccccc21` (single isomer, unassigned) [Compound 42, (S*)-(7-fluoro-11H-dibenzo[b,e][1,4]dioxepin-11-yl)methanamine], for which the IC50 in assay [1] (setting [4]) was less than 1 µM; in assay [2] it was not below 10 µM. This compound came in with an EC50 in assay [3] of less than 1 µM.

In the case of `CNCC1Oc2ccc(F)cc2Oc2ccccc21` (single isomer, unassigned) [Compound 43, (R*)-1-(7-fluoro-11H-dibenzo[b,e][1,4]dioxepin-11-yl)-N-methylmethanamine], the half-inhibitory concentration (IC50) in assay [1] (setting [5]) and in assay [2] was less than 1 µM throughout. For the same compound, the EC50 in assay [3] is less than 1 µM.

For the compound `CNCC1Oc2ccc(F)cc2Oc2ccccc21` (single isomer, unassigned) [Compound 44, (S*)-1-(7-fluoro-11H-dibenzo[b,e][1,4]dioxepin-11-yl)-N-methylmethanamine], the IC50 in assay [1] (setting [4]) and in assay [2] was less than 1 µM throughout. In assay [3], this compound yielded an EC50 of less than 1 µM.

`CNCC1Oc2ccccc2Oc2ncccc21` (single isomer, unassigned) [Compound 45, (R*)-1-(5H-benzo[2,3][1,4]dioxepino[5,6-b]pyridin-5-yl)-N-methylmethanamine]: the figures for the IC50 in assay [1] (setting [6]) and in assay [2] were 1 to 10 µM and not below 10 µM, respectively. Besides, the EC50 in assay [3] is more than 10 µM.

`CNCC1Oc2ccccc2Oc2ncccc21` (single isomer, unassigned) [Compound 46, (S*)-1-(5H-benzo[2,3][1,4]dioxepino[5,6-b]pyridin-5-yl)-N-methylmethanamine]: the IC50 in assay [1] (setting [6]) was 1 to 10 µM; in assay [2], not below 10 µM. This compound also displayed an EC50 in assay [3] of 1 to 10 µM.

On to `NCC1Oc2ccccc2Oc2ncccc21` (single isomer, unassigned) [Compound 47, (R*)-(5H-benzo[2,3][1,4]dioxepino[5,6-b]pyridin-5-yl)methanamine], for which the IC50 in assay [1] (setting [6]) is more than 10 µM; in assay [2], not below 10 µM. This compound also registered an EC50 in assay [3] of 1 to 10 µM.

Turning to `NCC1Oc2ccccc2Oc2ncccc21` (single isomer, unassigned) [Compound 48, (S*)-(5H-benzo[2,3][1,4]dioxepino[5,6-b]pyridin-5-yl)methanamine], the IC50 in assay [1] (setting [6]) is more than 10 µM; in assay [2], not below 10 µM. The compound also yielded an EC50 in assay [3] of 1 to 10 µM.

Consider `NCC1Oc2ccccc2Oc2cnccc21` (single isomer, unassigned) [Compound 49, (R*)-(5H-benzo[2,3][1,4]dioxepino[5,6-c]pyridin-5-yl)methanamine], for which the IC50 is more than 10 µM in assay [1] (setting [5]) and not below 10 µM in assay [2]. This compound also gave an EC50 in assay [3] of 1 to 10 µM.

Regarding `NCC1Oc2ccccc2Oc2cnccc21` (single isomer, unassigned) [Compound 50, (S*)-(5H-benzo[2,3][1,4]dioxepino[5,6-c]pyridin-5-yl)methanamine], the IC50 in assay [1] (setting [4]) was more than 10 µM; in assay [2] it was not below 10 µM. Besides, the EC50 in assay [3] is less than 1 µM.

Regarding `CNCC1Oc2ccccc2Oc2cnccc21` (single isomer, unassigned) [Compound 51, (R*)-1-(5H-benzo[2,3][1,4]dioxepino[5,6-c]pyridin-5-yl)-N-methylmethanamine], the IC50 was 1 to 10 µM in assay [1] (setting [6]) and not below 10 µM in assay [2]. In addition, in assay [3], the EC50 is 1 to 10 µM.

With `CNCC1Oc2ccccc2Oc2cnccc21` (single isomer, unassigned) [Compound 52, (S*)-1-(5H-benzo[2,3][1,4]dioxepino[5,6-c]pyridin-5-yl)-N-methylmethanamine], the IC50 in assay [1] (setting [6]) is 1 to 10 µM; in assay [2], not below 10 µM. In assay [3], this compound returned an EC50 of more than 10 µM.

Take `NCC1Oc2ccccc2Oc2ccncc21` (single isomer, unassigned) [Compound 53, (R*)-(11H-benzo[2,3][1,4]dioxepino[6,5-c]pyridin-11-yl)methanamine]: the values for the IC50 in assay [1] (setting [6]) and in assay [2] were more than 10 µM and not below 10 µM, respectively. Also, in assay [3], the EC50 was 1 to 10 µM.

Take `NCC1Oc2ccccc2Oc2ccncc21` (single isomer, unassigned) [Compound 54, (S*)-(11H-benzo[2,3][1,4]dioxepino[6,5-c]pyridin-11-yl)methanamine]: the figures for the IC50 in assay [1] (setting [6]) and in assay [2] were more than 10 µM and not below 10 µM, respectively. The compound also returned an EC50 in assay [3] of 1 to 10 µM.

On to `CNC[C@@H]1Oc2ccccc2Oc2ccncc21` (single isomer, unassigned) [Compound 55, (R*)-1-(11H-benzo[2,3][1,4]dioxepino[6,5-c]pyridin-11-yl)-N-methylmethanamine], for which the IC50 is more than 10 µM in assay [1] (setting [6]) and not below 10 µM in assay [2]. The EC50 in assay [3] was more than 10 µM.

Consider `CNC[C@H]1Oc2ccccc2Oc2ccncc21` (single isomer, unassigned) [Compound 56, (S*)-1-(11H-benzo[2,3][1,4]dioxepino[6,5-c]pyridin-11-yl)-N-methylmethanamine], for which the IC50 was more than 10 µM in assay [1] (setting [6]) and not below 10 µM in assay [2]. This compound yielded an EC50 in assay [3] of more than 10 µM.

Regarding `CNCC1Oc2ccccc2Oc2cccnc21` (single isomer, unassigned) [Compound 57, (S*)-1-(11H-benzo[2,3][1,4]dioxepino[6,5-b]pyridin-11-yl)-N-methylmethanamine], the IC50 in assay [1] (setting [5]) is 1 to 10 µM; in assay [2] it was not below 10 µM. The compound further gave an EC50 in assay [3] of less than 1 µM.

On to `CNCC1Oc2ccccc2Oc2cccnc21` (single isomer, unassigned) [Compound 58, (R*)-1-(11H-benzo[2,3][1,4]dioxepino[6,5-b]pyridin-11-yl)-N-methylmethanamine], for which the IC50 in assay [1] (setting [4]) and in assay [2] was 1 to 10 µM each time. This compound also came in with an EC50 in assay [3] of less than 1 µM.

Turning to `NCC1Oc2ccccc2Oc2cccnc21` (single isomer, unassigned) [Compound 59, (S*)-(11H-benzo[2,3][1,4]dioxepino[6,5-b]pyridin-11-yl)methanamine], the IC50 in assay [1] (setting [5]) is more than 10 µM; in assay [2], not below 10 µM. Also, the EC50 in assay [3] was less than 1 µM.

Consider `NCC1Oc2ccccc2Oc2cccnc21` (single isomer, unassigned) [Compound 60, (R*)-(11H-benzo[2,3][1,4]dioxepino[6,5-b]pyridin-11-yl)methanamine], for which the IC50 was more than 10 µM in assay [1] (setting [4]) and not below 10 µM in assay [2]. Moreover, the EC50 in assay [3] was less than 1 µM.
